US7074819B2, “Benzopyran or thiobenzopyran derivatives” (Chugai Seiyaku Kabushiki Kaisha, priority 1998, dated 2006)
Where two headings read alike, the source gives them in different places.

Tests used:
[1] = tested on: ovariectomized mice; assay: Anti-estrogenic activity (subcutaneous administration): inhibition of estradiol-stimulated uterine weight increase; assay type: in vivo, mice (ICR); conditions: s.c., 3 days; for Inhibition (%) of the increase of uterine weight by estradiol: 30 μg/mouse in peanut oil, ovariectomized ICR mice given 17β-estradiol-benzoate 0.1 μg/day; for inhibition of the increase of uterine weight by estradiol (in words): 30 μg/mouse, ovariectomized mice given 17β-estradiol
Procedure: Anti-estrogenic activity of the test compound by subcutaneous administration was determined according to the method described hereinafter. In this experiment, the compounds of Examples 1, 2, 3, 4, 5, 22, 127 and 128 were used as the test compound and the known anti-estrogenic compound ZM189154 was used as the control compound as in Experiment 1.
In this experiment, the test compound or the control compound was dissolved in peanut oil (Sigma) and injected subcutaneously for 3 days, once a day. After 24 hours from the last injection, the test animal was sacrificed and uterus was removed and weighed.

[2] = tested on: MCF-7 cell lines (ATCC); assay: Cell growth inhibiting activity (MTT, with 0.1 nM estradiol, 7 days); assay type: cell-based; conditions: MCF-7 cells, read-out: IC50 value for inhibiting cell growth of 50%
Procedure: In this experiment, the cell growth inhibiting activity was determined by using the compounds of Examples 1, 2, 3, 5, 22, 127 and 128 as the test compound and the known anti-estrogenic compound […] having the following structure (see, EP0124369 B1) as the control compound, according to the method described hereinafter.
One day before drug administration, incubated MCF-7 cells were plated in 96-well plate in the concentration of 5×10^3 cells per well. After the 96-well plate was incubated for one day, 0.1 nM of estradiol and the test compound in the given concentration were added to each well. The plate was incubated for 7 days at 37° C. and then MTT solution (Sigma) was added to each well in the amount of 15 μl and allowed to react for 2 hours at 37° C. After the reaction was completed, the solubilizing/stopping solution (constitution: SDS, acetic acid, N,N-dimethylformamide) was added to each well in the amount of 100 μl. Then, the absorption for each well at 570 nm was measured by means of a plate reader. IC50 value for inhibiting cell growth of 50% was calculated from the results as measured and described in the following Table 2.

[3] = tested on: ovariectomized mice; assay: Anti-estrogenic activity (oral administration): inhibition of estradiol-stimulated uterine weight increase; assay type: in vivo; conditions: p.o., 3 days, 10 mg/kg in 5% arabic gum solution; ovariectomized ICR mice given 17β-estradiol-benzoate 0.1 μg/day
Procedure: Oral anti-estrogenic activity in vivo of the test compound was determined according to the method described hereinafter. In this experiment, the compound of Example 3, 22, 127 and 128 were used as the test compound and the known anti-estrogenic compound ZM189154 was used as the control compound as in Experiment 2.
In this experiment, the test compound or the control compound was suspended in 5% arabic gum solution and orally administered for 3 days, once a day. After 24 hours from the last administration, the test animal was sacrificed and uterus was removed and weighed.

[4] = 7 days at 37° C., absorption at 570 nm

Row | IC50 ([2]; Homo sapiens, MCF7, 168 h, 7 days, control compound, (cis)) [nM] | IC50 ([2]; Homo sapiens, MCF7, 168 h, 7 days, control compound, (trans)) [nM] | IC50 [2, 4] [nM] | IC50 ([2]; Homo sapiens, MCF7, 168 h, 7 days at 37° C., absorption at 570 nm) [nM] | Molecule | Inhibition (%) of the increase of uterine weight by estradiol [1] [%] | Inhibition (%) of the increase of uterine weight by estradiol [3] [%] | inhibition of the increase of uterine weight by estradiol (in words) [1]
1 | – | – | – | – | CN(CCCCC[C@H]1c2ccc(O)cc2OC[C@@]1(C)c1ccc(O)cc1)CCCSCCCC(F)(F)C(F)(F)F (racemic) [Example 4, (3RS,4RS)-7-hydroxy-3-(4-hydroxyphenyl)-4-{5-[N-methyl-N-3-(4,4,5,5,5-pentafluoropentylthio)propylamino]pentyl}-3-methylchroman] | 26.4 | – | –
2 | 9.2 | 77 | – | – | C[C@]1(c2ccc(O)cc2)CCc2cc(O)ccc2C1CCCCCCCCC[S+]([O-])CCCC(F)(F)C(F)(F)F (stereo partly drawn) [ZM189154, reference compound] | 73.8 | 41.7 | –
3 | – | – | 54.5 | – | CC(C)(C)c1cc(CN2CCN(CCOc3ccc([C@@H]4c5ccc(O)cc5OC[C@@]4(C)c4ccc(O)cc4)cc3)CC2)cc(C(C)(C)C)c1 (racemic) [Example 3, (3RS,4SR)-7-hydroxy-4-{4-{2-{4-{[3,5-bis(t-butyl)phenyl]methyl}piperazinyl}ethoxy}phenyl}-3-(4-hydroxyphenyl)-3-methylchroman] | 11.7 | 0.6 | –
4 | – | – | 850 | – | CC1(c2ccc(O)cc2)CSc2cc(O)ccc2C1CCCCCCCCC(CCCC(F)(F)C(F)(F)F)C(=O)O (stereo not drawn) [Example 22, (3′RS,4′RS)-10-[7-hydroxy-3-(4-hydroxyphenyl)-3-methyltbiochroman-4-yl]-2-(4,4,5,5,5-pentafluoropentyl)decanoic acid] | 51.0 | 81.3 | substantially inhibit
5 | – | – | – | 387 | [O-][S+](CCCC(F)(F)C(F)(F)F)CCOCCOc1ccc(C2=C(c3ccc(O)cc3)COc3cc(O)ccc32)cc1 (stereo not drawn) [Example 5, 4-{4-{2-[2-(4,4,5,5,5-pentafluoropentylsulfinyl)ethoxy]ethoxy}phenyl}-7-hydroxy-3-(4-hydroxyphenyl)-2H-chromene] | 9.8 | – | –
6 | – | – | 67.5 | – | CCCCNC(=N)CCCCCCCCCC[C@H]1c2ccc(O)cc2OC[C@@]1(C)c1ccc(O)cc1 (racemic) [Compound I of Example 2, (3RS,4RS)-7-hydroxy-4-[(11-imino-11-N-butylamino)undecyl]-3-(4-hydroxyphenyl)-3-methylchroman] | 30.8 | – | –
7 | – | – | 1000 | – | CCCCN=C(CCCCCCCCCC[C@H]1c2ccc(O)cc2OC[C@@]1(C)c1ccc(O)cc1)NCCCC (racemic) [Compound II of Example 2, (3RS,4RS)-7-hydroxy-4-[(11-N-butylimino-11-N-butylamino)undecyl]-3-(4-hydroxyphenyl)-3-methylchroman] | −9.3 | – | –

Row | Molecule | IC50 ([2]; Homo sapiens, MCF7, 168 h, 7 days, control compound, (cis)) [nM] | IC50 ([2]; Homo sapiens, MCF7, 168 h, 7 days, control compound, (trans)) [nM] | IC50 [2, 4] [nM] | IC50 ([2]; Homo sapiens, MCF7, 168 h, 7 days at 37° C., absorption at 570 nm) [nM] | Inhibition (%) of the increase of uterine weight by estradiol [1] [%] | Inhibition (%) of the increase of uterine weight by estradiol [3] [%] | inhibition of the increase of uterine weight by estradiol (in words) [1]
8 | 7-hydroxy-3-(4-hydroxyphenyl)-3-methyl-4-{9-[4-(4,4,5,5,5-pentafluoropentyl)piperazinyl]nonyl}chroman [Example 1] | – | – | 60.4 | – | 27.5 | – | substantially inhibit
